Measured values taken from US20140107109A1, “AMINO-DIHYDROTHIAZINE AND AMINO-DIOXIDO DIHYDROTHIAZINE COMPOUNDS AS BETA-SECRETASE ANTAGONISTS AND METHODS OF USE” (Amgen Inc., priority 2012, published 2014).

What was measured:
Cathepsin D (Cat D) = target: T1, Cathepsin D (Cat D) (Homo sapiens, UniProt P07339); assay: In vitro enzymatic Cathepsin D (Cat D) FRET assay; assay type: biochemical; conditions: read-out: CatD IC50
T1 construct: Recombinant Cat D was expressed in CHO cells; made in house; host or cells: CHO cells
T1 sequence (P07339 65-412, species assumed): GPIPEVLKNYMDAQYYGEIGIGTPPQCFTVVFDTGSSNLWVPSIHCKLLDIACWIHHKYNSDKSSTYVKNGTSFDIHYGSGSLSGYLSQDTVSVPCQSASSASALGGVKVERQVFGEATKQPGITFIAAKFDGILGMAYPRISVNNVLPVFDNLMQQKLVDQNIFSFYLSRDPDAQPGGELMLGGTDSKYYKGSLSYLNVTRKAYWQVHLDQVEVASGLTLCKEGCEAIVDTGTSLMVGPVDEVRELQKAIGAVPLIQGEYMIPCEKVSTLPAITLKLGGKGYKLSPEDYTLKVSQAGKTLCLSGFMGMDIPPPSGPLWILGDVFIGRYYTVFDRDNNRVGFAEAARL
Method in brief: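 Recombinant Cat D expressed in CHO cells, used at 9 nM and pre-incubated one hour with serially diluted inhibitor in DMSO. Peptide substrate carries a fluorophore and quencher flanking the cleavage site; reaction stopped with Tris buffer raising pH to neutrality, then fluorescence read.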

[1] = system: Aβ40 in conditioned medium of cells stably expressing Amyloid Precursor Protein (APP); assay: In vitro BACE cell-based assay (HEK cell assay), Aβ40 sandwich ELISA; conditions: Homo sapiens, HEK293; average IC50, HEK cell assay
Method in brief: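 APP-stably expressing cells (40K/well, grown 24 h in DMEM/10% FBS) were treated 24 h with compounds in 10-point dose response starting at 100 μM or 10 μM, 0.1% DMSO final. Secreted Aβ40 was measured by sandwich ELISA (pAb40 capture, biotinylated 6E10 detection, europium time-resolved fluorescence); IC50 from percent inhibition.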

[2] = target: Beta Secretase enzyme (BACE1) (Homo sapiens, UniProt P56817); assay: In vitro enzymatic BACE FRET assay; assay type: biochemical; conditions: average IC50, enzyme assay; read-out: BACE1 FRET assay IC50
Beta Secretase enzyme (BACE1), sequence (P56817 46-501): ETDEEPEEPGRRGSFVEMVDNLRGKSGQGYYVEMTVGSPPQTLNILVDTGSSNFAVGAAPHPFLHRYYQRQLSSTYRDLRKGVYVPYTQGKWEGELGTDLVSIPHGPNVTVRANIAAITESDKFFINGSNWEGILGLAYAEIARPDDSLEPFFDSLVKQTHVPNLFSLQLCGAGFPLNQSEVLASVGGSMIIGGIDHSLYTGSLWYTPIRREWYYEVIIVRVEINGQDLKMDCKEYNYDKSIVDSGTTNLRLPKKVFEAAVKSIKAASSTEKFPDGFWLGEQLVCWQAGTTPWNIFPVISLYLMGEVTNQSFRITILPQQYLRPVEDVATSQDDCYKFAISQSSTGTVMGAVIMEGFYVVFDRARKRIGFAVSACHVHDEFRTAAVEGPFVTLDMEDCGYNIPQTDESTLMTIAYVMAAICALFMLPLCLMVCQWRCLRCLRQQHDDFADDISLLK
Method in brief: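 BACE1 cleavage of a 50 nM fluorophore/quencher peptide FRET substrate ran for one hour in 0.05 M acetate pH 4.2, 10% DMSO, 100 uM genapol. Tris buffer raised pH to neutrality to stop the reaction before fluorescence was read (excitation 488 nm, […]).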

## C[C@]1(F)C(N)=N[C@](C)(c2cc(NC(=O)c3cnc(C(F)(F)F)cn3)ccc2F)CS1(=O)=O [Example 323, N-(3-((3R,6R)-5-amino-6-fluoro-3,6-dimethyl-1,1-dioxido-3,6-dihydro-2H-1,4-thiazin-3-yl)-4-fluorophenyl)-5-(trifluoromethyl)-2-pyrazinecarboxamide]
Cathepsin D (Cat D)
  IC50: 931 µM
[1]
  IC50: 0.288 µM
[2]
  IC50: 0.00386 µM

## Cc1cc(C#N)cnc1C(=O)Nc1ccc(F)c([C@]2(C)CS(=O)(=O)[C@@](C)(F)C(N)=N2)c1 [Example 324, N-(3-((3R,6R)-5-amino-6-fluoro-3,6-dimethyl-1,1-dioxido-3,6-dihydro-2H-1,4-thiazin-3-yl)-4-fluorophenyl)-5-cyano-3-methyl-2-pyridinecarboxamide]
Cathepsin D (Cat D)
  IC50: 1370 µM
[1]
  IC50: 0.0651 µM
[2]
  IC50: 0.00102 µM

## C[C@]1(F)C(N)=N[C@](C)(c2cc(NC(=O)c3cnc(OCC(F)(F)F)cn3)ccc2F)CS1(=O)=O [Example 325, N-(3-((3R,6R)-5-amino-6-fluoro-3,6-dimethyl-1,1-dioxido-3,6-dihydro-2H-1,4-thiazin-3-yl)-4-fluorophenyl)-5-(2,2,2-trifluoroethoxy)-2-pyrazinecarboxamide]
Cathepsin D (Cat D)
  IC50: 1260 µM
[1]
  IC50: 0.0445 µM
[2]
  IC50: 0.00042 µM

## C[C@]1(F)C(N)=N[C@](C)(c2cc(NC(=O)c3ncc(C(F)F)cc3Cl)ccc2F)CS1(=O)=O [Example 326, N-(3-((3R,6R)-5-amino-6-fluoro-3,6-dimethyl-1,1-dioxido-3,6-dihydro-2H-1,4-thiazin-3-yl)-4-fluorophenyl)-3-chloro-5-(difluoromethyl)-2-pyridinecarboxamide]
Cathepsin D (Cat D)
  IC50: 979 µM
[1]
  IC50: 0.0597 µM
[2]
  IC50: 0.00277 µM

## C[C@]1(F)C(N)=N[C@](C)(c2cc(NC(=O)c3ncc(C#N)cc3Cl)ccc2F)CS1(=O)=O [Example 327, N-(3-((3R,6R)-5-amino-6-fluoro-3,6-dimethyl-1,1-dioxido-3,6-dihydro-2H-1,4-thiazin-3-yl)-4-fluorophenyl)-3-chloro-5-cyano-2-pyridinecarboxamide]
Cathepsin D (Cat D)
  IC50: > 400 µM
[1]
  IC50: 0.0204 µM
[2]
  IC50: 0.00074 µM

## COCc1cc(Cl)cnc1C(=O)Nc1ccc(F)c([C@]2(C)CS(=O)(=O)[C@@](C)(F)C(N)=N2)c1 [Example 328, N-(3-((3R,6R)-5-amino-6-fluoro-3,6-dimethyl-1,1-dioxido-3,6-dihydro-2H-1,4-thiazin-3-yl)-4-fluorophenyl)-5-chloro-3-(methoxymethyl)-2-pyridinecarboxamide]
Cathepsin D (Cat D)
  IC50: 598 µM
[1]
  IC50: 0.0928 µM
[2]
  IC50: 0.00051 µM

## CC1(C)C(N)=N[C@](C)(c2cc(NC(=O)c3ncc(Cl)cc3F)ccc2F)C(F)S1(=O)=O (stereo partly drawn) [Example 329, N-(3-((3R)-5-amino-2-fluoro-3,6,6-trimethyl-1,1-dioxido-3,6-dihydro-2H-1,4-thiazin-3-yl)-4-fluorophenyl)-5-chloro-3-fluoro-2-pyridinecarboxamide]
Cathepsin D (Cat D)
  IC50: > 400 µM
[1]
  IC50: 0.0058 µM
[2]
  IC50: 0.00047 µM

## Cc1cc(OC(F)F)cnc1C(=O)Nc1ccc(F)c([C@@]2(C)N=C(N)C(C)(C)S(=O)(=O)C2F)c1 (stereo partly drawn) [Example 330, N-(3-((3R)-5-amino-2-fluoro-3,6,6-trimethyl-1,1-dioxido-3,6-dihydro-2H-1,4-thiazin-3-yl)-4-fluorophenyl)-5-(difluoromethoxy)-3-methyl-2-pyridinecarboxamide]
Cathepsin D (Cat D)
  IC50: 136 µM
[1]
  IC50: 0.0041 µM
[2]
  IC50: 0.00075 µM

## Cc1cc(Cl)cnc1C(=O)Nc1ccc(F)c([C@@]2(C)N=C(N)C(C)(C)S(=O)(=O)C2F)c1 (stereo partly drawn) [Example 331, N-(3-((3R)-5-amino-2-fluoro-3,6,6-trimethyl-1,1-dioxido-3,6-dihydro-2H-1,4-thiazin-3-yl)-4-fluorophenyl)-5-chloro-3-methyl-2-pyridinecarboxamide]
Cathepsin D (Cat D)
  IC50: 188 µM
[1]
  IC50: 0.0048 µM
[2]
  IC50: 0.0003 µM

## CC#CCOc1cnc(C(=O)Nc2ccc(F)c([C@@]3(C)N=C(N)C(C)(C)S(=O)(=O)C3F)c2)cn1 (stereo partly drawn) [Example 332, N-(3-((3R)-5-amino-2-fluoro-3,6,6-trimethyl-1,1-dioxido-3,6-dihydro-2H-1,4-thiazin-3-yl)-4-fluorophenyl)-5-(2-butyn-1-yloxy)-2-pyrazinecarboxamide]
Cathepsin D (Cat D)
  IC50: 44.9 µM
[1]
  IC50: 0.001 µM
[2]
  IC50: 0.00023 µM

## CC1(C)C(N)=N[C@](C)(c2cc(NC(=O)c3cnc(OCC(F)(F)F)cn3)ccc2F)C(F)S1(=O)=O (stereo partly drawn) [Example 333, N-(3-((3R)-5-amino-2-fluoro-3,6,6-trimethyl-1,1-dioxido-3,6-dihydro-2H-1,4-thiazin-3-yl)-4-fluorophenyl)-5-(2,2,2-trifluoroethoxy)-2-pyrazinecarboxamide]
Cathepsin D (Cat D)
  IC50: 190 µM
[1]
  IC50: 0.016 µM
[2]
  IC50: 0.0015 µM

## CC1(C)C(N)=N[C@](C)(c2cc(NC(=O)c3ccc(C(F)F)cn3)ccc2F)C(F)S1(=O)=O (stereo partly drawn) [Example 334, N-(3-((3R)-5-amino-2-fluoro-3,6,6-trimethyl-1,1-dioxido-3,6-dihydro-2H-1,4-thiazin-3-yl)-4-fluorophenyl)-5-(difluoromethyl)-2-pyridinecarboxamide]
Cathepsin D (Cat D)
  IC50: 307 µM
[1]
  IC50: 0.0055 µM
[2]
  IC50: 0.0024 µM

## COCc1cc(Cl)cnc1C(=O)Nc1ccc(F)c([C@@]2(C)N=C(N)C(C)(C)S(=O)(=O)C2F)c1 (stereo partly drawn) [Example 335, N-(3-((3R)-5-amino-2-fluoro-3,6,6-trimethyl-1,1-dioxido-3,6-dihydro-2H-1,4-thiazin-3-yl)-4-fluorophenyl)-5-chloro-3-(methoxymethyl)-2-pyridinecarboxamide]
Cathepsin D (Cat D)
  IC50: 311 µM
[1]
  IC50: 0.0068 µM
[2]
  IC50: 0.00056 µM

## COc1cnc(C(=O)Nc2ccc(F)c([C@@]3(C)N=C(N)C(C)(C)S(=O)(=O)C3F)c2)c(Cl)c1 (stereo partly drawn) [Example 336, N-(3-((3R)-5-amino-2-fluoro-3,6,6-trimethyl-1,1-dioxido-3,6-dihydro-2H-1,4-thiazin-3-yl)-4-fluorophenyl)-3-chloro-5-methoxy-2-pyridinecarboxamide]
Cathepsin D (Cat D)
  IC50: 533 µM
[1]
  IC50: 0.0053 µM
[2]
  IC50: 0.0014 µM

## COc1cnc(C(=O)Nc2ccc(F)c([C@@]3(C)N=C(N)C(C)(C)S(=O)(=O)C3F)c2)c(C)c1 (stereo partly drawn) [Example 337, N-(3-((3R)-5-amino-2-fluoro-3,6,6-trimethyl-1,1-dioxido-3,6-dihydro-2H-1,4-thiazin-3-yl)-4-fluorophenyl)-5-methoxy-3-methyl-2-pyridinecarboxamide]
Cathepsin D (Cat D)
  IC50: 233 µM
[1]
  IC50: 0.0097 µM
[2]
  IC50: 0.00313 µM

## CC1[C@@](C)(c2cc(NC(=O)c3ccc(Cl)cn3)ccc2F)N=C(N)[C@](C)(F)S1(=O)=O (stereo partly drawn) [Example 339, N-(3-((3R,6R)-5-amino-6-fluoro-2,3,6-trimethyl-1,1-dioxido-3,6-dihydro-2H-1,4-thiazin-3-yl)-4-fluorophenyl)-5-chloro-2-pyridinecarboxamide]
Cathepsin D (Cat D)
  IC50: 109 µM
[1]
  IC50: 0.196 µM
[2]
  IC50: 0.0181 µM

## Cc1cc(Cl)cnc1C(=O)Nc1ccc(F)c([C@@]2(C)N=C(N)C(C)(C)S(=O)(=O)C23CC3)c1 [Example 340, N-(3-((8R)-6-amino-5,5,8-trimethyl-4,4-dioxido-4-thia-7-azaspiro[2.5]oct-6-en-8-yl)-4-fluorophenyl)-5-chloro-3-methyl-2-pyridinecarboxamide]
Cathepsin D (Cat D)
  IC50: 20 µM
[1]
  IC50: 0.0044 µM
[2]
  IC50: 0.0051 µM

## Cc1cc(OC(F)F)cnc1C(=O)Nc1ccc(F)c([C@@]2(C)N=C(N)C(C)(C)S(=O)(=O)C23CC3)c1 [Example 341, N-(3-((8R)-6-amino-5,5,8-trimethyl-4,4-dioxido-4-thia-7-azaspiro[2.5]oct-6-en-8-yl)-4-fluorophenyl)-5-(difluoromethoxy)-3-methyl-2-pyridinecarboxamide]
Cathepsin D (Cat D)
  IC50: 9.4 µM
[1]
  IC50: 0.0024 µM
[2]
  IC50: 0.00599 µM

## CC1(C)C(N)=N[C@](C)(c2cc(NC(=O)c3ccc(C(F)(F)F)cn3)ccc2F)CS1(=O)=O [Example 342, N-(3-((3R)-5-amino-3,6,6-trimethyl-1,1-dioxido-3,6-dihydro-2H-1,4-thiazin-3-yl)-4-fluorophenyl)-5-(trifluoromethyl)-2-pyridinecarboxamide]
Cathepsin D (Cat D)
  IC50: 113 µM
[1]
  IC50: 0.0007 µM
[2]
  IC50: 0.00061 µM

## CC1(C)C(N)=N[C@](C)(c2cc(NC(=O)c3cc4ccccc4cn3)ccc2F)CS1(=O)=O [Example 343, N-(3-((3R)-5-amino-3,6,6-trimethyl-1,1-dioxido-3,6-dihydro-2H-1,4-thiazin-3-yl)-4-fluorophenyl)-3-isoquinolinecarboxamide]
Cathepsin D (Cat D)
  IC50: 234 µM
[1]
  IC50: 0.0107 µM
[2]
  IC50: 0.00511 µM

## CC1(C)C(N)=N[C@](C)(c2cc(NC(=O)c3cnc(OC(F)F)cn3)ccc2F)CS1(=O)=O [Example 344, N-(3-((3R)-5-amino-3,6,6-trimethyl-1,1-dioxido-3,6-dihydro-2H-1,4-thiazin-3-yl)-4-fluorophenyl)-5-(difluoromethoxy)-2-pyrazinecarboxamide]
Cathepsin D (Cat D)
  IC50: 388 µM
[1]
  IC50: 0.0004 µM
[2]
  IC50: 0.00053 µM

## COc1cc(Cl)ccc1C(=O)Nc1ccc(F)c([C@]2(C)CS(=O)(=O)C(C)(C)C(N)=N2)c1 [Example 345, N-(3-((3R)-5-amino-3,6,6-trimethyl-1,1-dioxido-3,6-dihydro-2H-1,4-thiazin-3-yl)-4-fluorophenyl)-4-chloro-2-methoxybenzamide]
Cathepsin D (Cat D)
  IC50: 75.6 µM
[1]
  IC50: 0.0713 µM
[2]
  IC50: 0.0313 µM
